Earlier results, collected in patent publication US20180036237A1, “OIL/SURFACTANT MIXTURES FOR SELF-EMULSIFICATION” (priority 2015, published 2018).

Conditions: single surfactant

polyoxyethylene cetostearyl ether
HLB: 13.5
